Reference: patent US20170050957A1, “4-AMINO-6-(HETEROCYCLIC)PICOLINATES AND 6-AMINO-2-(HETEROCYCLIC)PYRIMIDINE-4-CARBOXYLATES AND THEIR USE AS HERBICIDES” (Dow AgroSciences LLC, priority 2013, published 2017)
Where two headings read alike, the source gives them in different places.

What was measured:
[1] = system: Key Grass and Sedge Weeds as well as Grass Crops; assay: Post-emergent Test II herbicidal activity (Table 16); format: in vivo; conditions: post-emergence, 336 h, 14 d; for pest or weed control at 35 g/ha: 35 g ai/ha; for pest or weed control at 70 g/ha: 70 g ai/ha; for pest or weed control at 140 g/ha: 140 g ai/ha
Summary of the method: (§1)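 Plants grown in greenhouse (~15 h photoperiod, 23-29 °C day, 22-28 °C night) to first or second true leaf stage, then sprayed post-emergence at 187 L/ha with a high rate and 1/2×, 1/4×, 1/8× and 1/16× dilutions. Injury scored visually after 14 d, 0-100% versus untreated plants.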

[2] = system: Key Broadleaf Weed and Crop Species; assay: Post-emergent Test II herbicidal activity (Table 15); format: in vivo; conditions: post-emergence, 336 h, 14 d; for pest or weed control at 35 g/ha: 35 g ai/ha; for pest or weed control at 70 g/ha: 70 g ai/ha; for pest or weed control at 140 g/ha: 140 g ai/ha
Summary of the method: as §1

[3] = Cyperus esculentus, yellow nutsedge (Cyperus esculentus), read-out: Visual Growth Reduction (%) 14 Days After Application, CYPES
[4] = Echinochloa crus-galli, barnyardgrass (Echinochloa crus-galli), read-out: Visual Growth Reduction (%) 14 Days After Application, ECHCG
[5] = Oryza sativa, rice (Oryza sativa), read-out: Visual Growth Reduction (%) 14 Days After Application, ORYSA
[6] = Setaria faberi, giant foxtail (Setaria faberi), read-out: Visual Growth Reduction (%) 14 Days After Application, SETFA
[7] = Triticum aestivum, wheat, spring (Triticum aestivum), read-out: Visual Growth Reduction (%) 14 Days After Application, TRZAS
[8] = Zea mays, maize, corn (Zea mays), read-out: Visual Growth Reduction (%) 14 Days After Application, ZEAMX
[9] = Abutilon theophrasti, velvetleaf (Abutilon theophrasti), read-out: Visual Growth Reduction (%) 14 Days After Application, ABUTH
[10] = Amaranthus retroflexus, redroot pigweed (Amaranthus retroflexus), read-out: Visual Growth Reduction (%) 14 Days After Application, AMARE
[11] = Brassica napus, oilseed rape, canola (Brassica napus), read-out: Visual Growth Reduction (%) 14 Days After Application, BRSNN
[12] = Chenopodium album, lambsquarters (Chenopodium album), read-out: Visual Growth Reduction (%) 14 Days After Application, CHEAL
[13] = Euphorbia heterophylla, wild poinsettia (Euphorbia heterophylla), read-out: Visual Growth Reduction (%) 14 Days After Application, EPHHL
[14] = Helianthus annuus, sunflower (Helianthus annuus), read-out: Visual Growth Reduction (%) 14 Days After Application, HELAN

Row | SMILES | pest or weed control at 35 g/ha [1, 3] | pest or weed control at 70 g/ha [1, 3] | pest or weed control at 140 g/ha [1, 3] | pest or weed control at 35 g/ha [1, 4] | pest or weed control at 70 g/ha [1, 4] | pest or weed control at 140 g/ha [1, 4] | pest or weed control at 35 g/ha [1, 5] | pest or weed control at 70 g/ha [1, 5] | pest or weed control at 140 g/ha [1, 5] | pest or weed control at 35 g/ha [1, 6] | pest or weed control at 70 g/ha [1, 6] | pest or weed control at 140 g/ha [1, 6] | pest or weed control at 35 g/ha [1, 7] | pest or weed control at 70 g/ha [1, 7] | pest or weed control at 140 g/ha [1, 7] | pest or weed control at 35 g/ha [1, 8] | pest or weed control at 70 g/ha [1, 8] | pest or weed control at 140 g/ha [1, 8] | pest or weed control at 35 g/ha [2, 9] | pest or weed control at 70 g/ha [2, 9] | other results
1 | COC(=O)c1nc(-c2ccc3occc3c2)nc(N)c1OC [Compound 2.06] | 0 to 29% | 0 to 29% | 0 to 29% | 0 to 29% | 45 to 59% | 95 to 100% | 0 to 29% | 0 to 29% | 0 to 29% | 0 to 29% | 0 to 29% | 0 to 29% | 0 to 29% | 0 to 29% | 0 to 29% | 0 to 29% | 0 to 29% | 0 to 29% | 0 to 29% | 0 to 29% | pest or weed control at 140 g/ha [2, 9]: 75 to 84%; pest or weed control at 35 g/ha [2, 10]: 75 to 84%; pest or weed control at 70 g/ha [2, 10]: 95 to 100%; pest or weed control at 140 g/ha [2, 10]: 95 to 100%; pest or weed control at 35 g/ha [2, 11]: 30 to 44%; pest or weed control at 70 g/ha [2, 11]: 60 to 74%; pest or weed control at 140 g/ha [2, 11]: 85 to 94%; pest or weed control at 35 g/ha [2, 12]: 60 to 74%; pest or weed control at 70 g/ha [2, 12]: 75 to 84%; pest or weed control at 140 g/ha [2, 12]: 85 to 94%; pest or weed control at 35 g/ha [2, 13]: 30 to 44%; pest or weed control at 70 g/ha [2, 13]: 75 to 84%; pest or weed control at 140 g/ha [2, 13]: 95 to 100%; pest or weed control at 35 g/ha [2, 14]: 60 to 74%; pest or weed control at 70 g/ha [2, 14]: 75 to 84%; pest or weed control at 140 g/ha [2, 14]: 85 to 94%
2 | COC(=O)c1nc(-c2ccc(Cl)c3[nH]ccc23)c(F)c(N)c1Cl [Compound 1.43] | 0 to 29% | 0 to 29% | 0 to 29% | 0 to 29% | 0 to 29% | 0 to 29% | 0 to 29% | 0 to 29% | 0 to 29% | 0 to 29% | 0 to 29% | 0 to 29% | 0 to 29% | 0 to 29% | 0 to 29% | 0 to 29% | 0 to 29% | 0 to 29% | 0 to 29% | 0 to 29% | pest or weed control at 140 g/ha [2, 9]: 60 to 74%; pest or weed control at 35 g/ha [2, 10]: 95 to 100%; pest or weed control at 70 g/ha [2, 10]: 95 to 100%; pest or weed control at 140 g/ha [2, 10]: 95 to 100%; pest or weed control at 35 g/ha [2, 11]: 0 to 29%; pest or weed control at 70 g/ha [2, 11]: 0 to 29%; pest or weed control at 140 g/ha [2, 11]: 0 to 29%; pest or weed control at 35 g/ha [2, 12]: 75 to 84%; pest or weed control at 70 g/ha [2, 12]: 85 to 94%; pest or weed control at 140 g/ha [2, 12]: 85 to 94%; pest or weed control at 35 g/ha [2, 13]: 0 to 29%; pest or weed control at 70 g/ha [2, 13]: 0 to 29%; pest or weed control at 140 g/ha [2, 13]: 30 to 44%; pest or weed control at 35 g/ha [2, 14]: 60 to 74%; pest or weed control at 70 g/ha [2, 14]: 75 to 84%; pest or weed control at 140 g/ha [2, 14]: 75 to 84%
